Data from US7432403B2, “Cyclic palladium compounds having coordinated thereto bis (diphenylphosphine) ferrocene ligands which inhibit the activity of proteins and enzymes and treatment of diseases and disorders associated therewith” (Fundação De Amparo À Pesquisa Do Estado de São Paulo, priority 2002, dated 2008).
Like-named read-outs stand apart in the source and are kept apart here.

Experiments:
Cathepsin B = target: T1, Cathepsin B (Homo sapiens, UniProt P07858); assay: Cathepsin B endopeptidase activity, hydrolysis of fluorogenic substrate Z-Phe-Arg-MCA (spectrofluorimetry); assay type: biochemical; settings: for Ki: pH 6.4, 37° C., substrate Z-Phe-Arg-MCA
T1 construct: purchased Calbiochem Co
Protocol: Cathepsin B and papain were supplied by the company Calbiochem Co. and the concentration of active enzymes was determined by titulation using the cysteine-protease inhibitor known as E-64. Cathepsin B and papain were packed at 4° C. within 50 mM in sodium acetate buffer (pH 5.0) containing 10 μM MMTS. The fluorogenic substrate amidomethylcoumaryl Z-Phe-Arg-MCA, tripsin and the irreversible papain inhibitor E-64 were supplied by Sigma.
The influence of the organometal compounds on the activity of endopeptidase cathepsin B was determined by spectrofluorimetry, using the fluorogenic substrate Z-Phe-Arg-MCA. This peptide is a good substrate for cathepsin B with kcat/Ks=4.5 10^5 M^−1.s^−1 and was chosen so to locate residues Phe and Arg in P2 and P1, respectively. The substrate covers the main linkage sites S2, S1 and S′1 with cysteine-proteases similar to papain (Turk, D. et al, Revised definition of substrate binding sites of papain-like cysteine proteases, J. Biol. Chem.; 1998, 379, 137-147).
The intensities of fluorescence signals were monitored by a thermostatic spectrofluorimetry Hitachi F-2000. Wavelength was calibrated at 380 nm for excitation and 440 nm for emission. The activation of the enzyme was made by incubation for five minutes at 37° C. in a buffer solution of 50 mM sodium phosphate (pH 6.4) containing NaCl 200 mM, EDTA 1 mM and DTT 2 mM. Measurements were taken in the same activation buffer of cathepsin B and kynetic standards were set up by taking the initial hydrolysis rate under various concentrations of the substrate in the presence or absence of different concentrations of organometal compounds. The results were analysed by non-linear regression by using the software GraFit 3.01 (Erithacus Software Ltd.).
The Kynetic model of Scheme 1 describes the effect of heparin over the hydrolysis of Z-Phe-Arg-MCA by cathepsin B:
In which S represents the substrate Z-Phe-Arg-MCA; I represents the cyclometal compound; E represents cathepsin B; KS represents the dissociation constant of the substrate; KI represents the apparent dissociation constant of the organometal; α is a disturbance standard of KS; and β is a disturbance standard of Vmax (kcat), with the standards being in accordance to the equation: […]
Data were treated according to Equation 1, by using non-linear regression and the values for the constants were calculated. […] The hydrolysis rate of the second order substrates was the same, kcat/Ks=4.5 10^5 M^−1s^−1, in the presence or absence of [Pd (C^2,N-(R+dmpa)(dppf)]N3.

[1] = Evaluation of acute toxicity, fixed dosage test, 14-day observation; assay type: in vivo, mice; settings: one dose intraperitoneally
Protocol: The concentration of cyclopalladated compounds of the invention as used in this study is being determined from the realization of a fixed dosage test, in which the substance to be tested is given to mice under specific dosage, which is selected from previously fixed dosages, according to classifications from ruling institutions, for which the maximum concentration to be tested should not surpass 2000 mg/kg.
After drug administration, a 14-day observation period follows. The dosage under which signs of acute toxicity are observed, such as changes in hair, mucosa and skin, as well as the occurrence of diarrhea and convulsions, conjunctivitis, excitement or slow movements, is used to graduate or classify the tested material.
Assayed compounds are diluted in saline containing 10% DMSO and then 0.2 ml of that solution are intraperitoneally given to the animals. Therefore, groups of 10 animals (5 males and 5 females) were treated with various doses of the compounds being studied. The control animals received only saline with 10% DMSO. After the end of the treatment, the animals remained in observation for a period of 14 days.

ACE = target: T2, ACE (Mus musculus, UniProt P09470); settings: administration one hour after radiation; cited from earlier work
T2 construct: host or cells: mouse plasma, in vivo
T2 sequence (P09470 35-1312): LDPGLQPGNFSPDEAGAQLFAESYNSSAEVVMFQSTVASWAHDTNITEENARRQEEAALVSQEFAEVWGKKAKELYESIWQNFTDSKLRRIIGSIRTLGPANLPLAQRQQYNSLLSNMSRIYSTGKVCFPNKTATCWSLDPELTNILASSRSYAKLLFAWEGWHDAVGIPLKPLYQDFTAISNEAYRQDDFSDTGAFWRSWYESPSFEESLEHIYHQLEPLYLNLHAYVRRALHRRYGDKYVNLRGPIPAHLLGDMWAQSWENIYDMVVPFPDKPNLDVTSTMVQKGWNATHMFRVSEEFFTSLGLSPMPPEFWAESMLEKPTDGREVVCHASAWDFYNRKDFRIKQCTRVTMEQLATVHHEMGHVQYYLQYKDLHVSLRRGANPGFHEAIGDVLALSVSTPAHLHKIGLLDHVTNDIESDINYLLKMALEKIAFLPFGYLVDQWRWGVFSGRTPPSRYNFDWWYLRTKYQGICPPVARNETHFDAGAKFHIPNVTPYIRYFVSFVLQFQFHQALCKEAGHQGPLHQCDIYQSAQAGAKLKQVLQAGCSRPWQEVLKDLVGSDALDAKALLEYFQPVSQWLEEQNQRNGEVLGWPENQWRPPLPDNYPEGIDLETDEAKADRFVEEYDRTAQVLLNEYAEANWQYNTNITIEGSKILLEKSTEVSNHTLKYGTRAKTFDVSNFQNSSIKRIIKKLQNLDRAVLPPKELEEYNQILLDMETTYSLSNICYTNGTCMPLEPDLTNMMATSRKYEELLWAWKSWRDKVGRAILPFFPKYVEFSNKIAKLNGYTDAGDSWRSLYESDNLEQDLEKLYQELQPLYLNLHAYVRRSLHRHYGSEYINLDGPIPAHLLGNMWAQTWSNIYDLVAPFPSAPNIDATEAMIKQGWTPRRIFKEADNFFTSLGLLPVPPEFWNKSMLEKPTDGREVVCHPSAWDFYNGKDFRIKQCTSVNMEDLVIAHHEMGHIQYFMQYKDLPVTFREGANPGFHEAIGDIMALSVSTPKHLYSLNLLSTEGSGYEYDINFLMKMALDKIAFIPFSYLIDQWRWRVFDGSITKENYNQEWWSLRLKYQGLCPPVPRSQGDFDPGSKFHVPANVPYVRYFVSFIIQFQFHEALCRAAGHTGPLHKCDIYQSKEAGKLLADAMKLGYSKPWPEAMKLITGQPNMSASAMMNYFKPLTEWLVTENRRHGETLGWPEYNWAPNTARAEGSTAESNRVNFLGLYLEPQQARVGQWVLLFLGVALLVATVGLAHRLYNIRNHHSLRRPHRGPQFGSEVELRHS

HL60 cells = assay: Morphological aspect of treated HL60 cells; assay type: cell-based; settings: 72 hours
Excerpt: From the results obtained by experiments as illustrated by Example 11, we verified cytotoxic activity of the cyclopalladated compounds in both studied lines, with results obtained from the two compounds being similar (FIGS. 10 and 11). […] On the other hand, the morphological aspect of leukemic cells HL60 treated with cyclopalladated compounds is that of cells in scheduled cell death process or apoptosis, as illustrated by FIG. 12.

Ehrlich's ascitic tumor = assay: Life extension of animals with Ehrlich's ascitic tumor; assay type: in vivo, mice; settings: 1 mg/kg subcutaneously, four consecutive days, start 72 hours after inoculation
Excerpt: With the purpose to observe a possible protection of treated animals with the compounds of the invention, a life extension curve was drafted, considering animals with the Ehrlich's ascitic tumor, be them treated or not.
The Life Extension Curve of Kaplan-Meier was used to analyse the possibility of survival. The comparison between both groups (holders of tumor vs. holders of tumor/treated) was made by the Log-Rank method—non-parametrical procedures (Cox-Mantel). ANOVA variation analysis was used for the analysis of various groups. In case of significant difference, the Tukey's test was applied. In cases in which the number of samples between two groups was small, the Wilcoxon's non-parametrical test was used.
To develop the Ehrlich's ascitic tumor, mice are intraperitoneally inoculated with 0.1 ml of a suspension of tumor cells containing 10^6 cells, originating from the peritoneal cavity of holder mice. After taking out the ascitic liquid from the peritoneum of mice holding the tumor of Ehrlich, the number and viability of cells are determined by using trypan blue colorant in a Neubauer chamber.
With the purpose to observe possible protection of treated animals with the compounds [Pd2(C^2,N-S-dmpa)2(μ-dpp)Cl2] e [Pd2(C^2,N-S-dmpa)2(μ-dppf)(N3)2] (as per scheme C shown in generic structures), a life extension curve was made. […]

Compound: [Pd(C^2,N-(R+dmpa)(dppf)]N3 [2a]
- inhibition of Cathepsin B (Cathepsin B): 81%
- product formation constant reduced to (Cathepsin B): 36
- reduction of kcat in the presence of the compound (Cathepsin B): 5.6 times
- α (disturbance standard of KS) (Cathepsin B): 0.19±0.02
- β (disturbance standard of Vmax, kcat) (Cathepsin B): 0.18±0.02
- β/α (Cathepsin B): 1.1±0.1
- increase of the affinity between Cathepsin B and the substrate Z-Phe-Arg-MCA (Cathepsin B; in the presence of the compound): 5.3 time
- Ki (Cathepsin B; read-out: dissociation constant KH, compound linked to free Cathepsin B (E)): 12 ± 1 µM
- Ki (Cathepsin B; read-out: dissociation constant αKH, compound linked to the enzyme-substrate (ES) complex): 2.4 ± 0.3 µM
- Ks value in the presence of the organometal compound (Cathepsin B; reduced from 110±15 without compound): 21 ± 2 µM

Compound: C[C@H]1c2cccc[c]2[Pd-2]([Cl])([P+](c2ccccc2)(c2ccccc2)[c-]2cccc2)[N+]1(C)C.C[C@H]1c2cccc[c]2[Pd-2]([Cl])([P+](c2ccccc2)(c2ccccc2)[c-]2cccc2)[N+]1(C)C.[Fe+2] (stereo partly drawn) [4a, [Pd2(C^2,N-S-dmpa)2(μ-dppf)Cl2]]
- Signs and symptoms ([1]; 500 mg/kg): Lack of acute toxicity signs

Compound: NCCCC[C@H](N[C@@H](CCc1ccccc1)C(=O)O)C(=O)N1CCC[C@H]1C(=O)O [lisinopryl]
- inhibition of murine plasma activity for ACE (ACE): 100%

Compound: C[C@@H]1c2cccc[c]2[Pd-2]([Cl])([P+](c2ccccc2)(c2ccccc2)[c-]2cccc2)[N+]1(C)C.C[C@@H]1c2cccc[c]2[Pd-2]([Cl])([P+](c2ccccc2)(c2ccccc2)[c-]2cccc2)[N+]1(C)C.[Fe+2] (stereo partly drawn) [4b, [Pd2(C^2,N-R+ dmpa)2(μ-dppf)Cl2]]
- Signs and symptoms ([1]; 10 mg/kg, listed as R(^+)dmpa Cl^− dppf (1:1), 10 mg/kg): Signs of conjunctivitis

Compound: C[C@H]1c2cccc[c]2[Pd-2]([Cl])([P+](c2ccccc2)(c2ccccc2)[c-]2cccc2)[N+]1(C)C.[Fe+2].c1ccc(P(c2ccccc2)[c-]2cccc2)cc1 (stereo partly drawn) [[Pd(C^2,N-(S-dmpa)(dppf)Cl]]
- morphological aspect of treated HL60 cells (HL60 cells): aspects of an apoptosis cell
- life extension of animals holding the ascitic tumor of Ehrlich (Ehrlich's ascitic tumor): increased the life extension
